Laboratory results as given in patent US20260199320A1, “COMBINATION THERAPIES FOR TREATING CANCER” (INSTITUTE FOR CANCER RESEARCH D/B/A THE RESEARCH INSTITUTE …, priority 2022, published 2026).
Like-named read-outs stand apart in the source and are kept apart here.

System: HEP 3B Hepatocellular Carcinoma
Experiment: Cell viability by CellTiter Blue assay, CalcuSyn 2.0 combination analysis, HEP 3B
Settings: for IC50: read-out: Dm; for Dose Lon: Lon alone; for Dose Len: Len alone; for Dose Sor: Sor alone
Description: Cell viability was analyzed by CellTiter Blue assay. ED, effective dose. The data analysis was performed using CalcuSyn 2.0 software. […] CI 0.85-0.9: slight synergism; CI 0.7-0.85: moderate synergism; CI 0.3-0.7: synergism; CI 0.1-0.3: strong synergism; CI<0.1: very strong synergism.

NC(=O)N1CCC(CC(=O)N2CCC([C@H]3c4ncc(Br)cc4CCc4cc(Cl)cc(Br)c43)CC2)CC1 [Lon, Lonafarnib]
Effect (Dose 100.0 nM): 0.2171 | Effect (Dose 200.0 nM): 0.2792 | Effect (Dose 400.0 nM): 0.3124 | Effect (Dose 600.0 nM): 0.3247 | Effect (Dose 800.0 nM): 0.3747 | Effect (Dose 1.0E−4 nM): 1.0E−4 | IC50 (Homo sapiens, Hep3B): 1.56 µM | Dose Lon (Fa 0.05): 7.632 nM | Dose Lon (Fa 0.1): 29.4334 nM | Dose Lon (Fa 0.15): 67.8864 nM | Dose Lon (Fa 0.2): 127.362 nM | Dose Lon (Fa 0.25): 214.159 nM | Dose Lon (Fa 0.3): 337.210 nM | Dose Lon (Fa 0.34468 (experimental point of LonSor)): 488.163 nM | Dose Lon (Fa 0.35): 509.303 nM | Dose Lon (Fa 0.37774 (experimental point of LonSor)): 632.458 nM | Dose Lon (Fa 0.4): 749.086 nM | Dose Lon (Fa 0.45): 1084.42 nM | Dose Lon (Fa 0.48908 (experimental point of LonLen)): 1439.98 nM | Dose Lon (Fa 0.5): 1558.23 nM | Dose Lon (Fa 0.55): 2239.05 nM | Dose Lon (Fa 0.6): 3241.39 nM | Dose Lon (Fa 0.60837 (experimental point of LonSor)): 3452.95 nM | Dose Lon (Fa 0.65): 4767.46 nM | Dose Lon (Fa 0.66115 (experimental point of LonLen)): 5212.31 nM | Dose Lon (Fa 0.7): 7200.51 nM | Dose Lon (Fa 0.75): 11337.8 nM | Dose Lon (Fa 0.76439 (experimental point of LonLen)): 13060.1 nM | Dose Lon (Fa 0.79346 (experimental point of LonLen)): 17723.1 nM | Dose Lon (Fa 0.8): 19064.4 nM | Dose Lon (Fa 0.83864 (experimental point of LonLen)): 30595.1 nM | Dose Lon (Fa 0.84428 (experimental point of LonSor)): 33023.4 nM | Dose Lon (Fa 0.85): 35766.8 nM | Dose Lon (Fa 0.9): 82494.1 nM | Dose Lon (Fa 0.93635 (experimental point of LonSor)): 200408. nM | Dose Lon (Fa 0.95): 318153. nM | Dose Lon (Fa 0.97): 831265. nM | Dose Lon (Fa 1.0E−4 (experimental point)): 9.27e-05 nM

COc1cc2nccc(Oc3ccc(NC(=O)NC4CC4)c(Cl)c3)c2cc1C(N)=O [Len, Lenvatinib]
Effect (Dose 1.0 uM): 0.3487 | Effect (Dose 2.0 uM): 0.5908 | Effect (Dose 4.0 uM): 0.6835 | Effect (Dose 6.0 uM): 0.706 | Effect (Dose 8.0 uM): 0.7316 | Effect (Dose 1.0E−4 uM): 1.0E−4 | IC50 (Homo sapiens, Hep3B): 1.98 µM | Dose Len (Fa 0.05): 0.08241 µM | Dose Len (Fa 0.1): 0.1847 µM | Dose Len (Fa 0.15): 0.3044 µM | Dose Len (Fa 0.2): 0.4435 µM | Dose Len (Fa 0.25): 0.605 µM | Dose Len (Fa 0.3): 0.7937 µM | Dose Len (Fa 0.35): 1.016 µM | Dose Len (Fa 0.4): 1.279 µM | Dose Len (Fa 0.45): 1.596 µM | Dose Len (Fa 0.48908 (experimental point)): 1.891 µM | Dose Len (Fa 0.5): 1.982 µM | Dose Len (Fa 0.55): 2.462 µM | Dose Len (Fa 0.6): 3.071 µM | Dose Len (Fa 0.65): 3.868 µM | Dose Len (Fa 0.66115 (experimental point)): 4.08 µM | Dose Len (Fa 0.7): 4.949 µM | Dose Len (Fa 0.75): 6.493 µM | Dose Len (Fa 0.76439 (experimental point)): 7.066 µM | Dose Len (Fa 0.79346 (experimental point)): 8.481 µM | Dose Len (Fa 0.8): 8.859 µM | Dose Len (Fa 0.83864 (experimental point)): 11.7543 µM | Dose Len (Fa 0.85): 12.9048 µM | Dose Len (Fa 0.9): 21.2693 µM | Dose Len (Fa 0.95): 47.6701 µM | Dose Len (Fa 0.97): 84.6505 µM | Dose Len (Fa 1.0E−4 (experimental point)): 9.48e-05 µM

CNC(=O)c1cc(Oc2ccc(NC(=O)Nc3ccc(Cl)c(C(F)(F)F)c3)cc2)ccn1 [Sor, Sorafenib]
Effect (Dose 1.0 uM): 0.05824 | Effect (Dose 2.0 uM): 0.1667 | Effect (Dose 4.0 uM): 0.4078 | Effect (Dose 6.0 uM): 0.6762 | Effect (Dose 8.0 uM): 0.8681 | Effect (Dose 1.0E−4 uM): 1.0E−4 | Dose Sor (Fa 0.05): 0.1769 µM | Dose Sor (Fa 0.1): 0.4116 µM | Dose Sor (Fa 0.15): 0.6944 µM | Dose Sor (Fa 0.2): 1.029 µM | Dose Sor (Fa 0.25): 1.425 µM | Dose Sor (Fa 0.3): 1.893 µM | Dose Sor (Fa 0.34468 (experimental point)): 2.386 µM | Dose Sor (Fa 0.35): 2.451 µM | Dose Sor (Fa 0.37774 (experimental point)): 2.806 µM | Dose Sor (Fa 0.4): 3.12 µM | Dose Sor (Fa 0.45): 3.933 µM | Dose Sor (Fa 0.5): 4.934 µM | Dose Sor (Fa 0.55): 6.19 µM | Dose Sor (Fa 0.6): 7.803 µM | Dose Sor (Fa 0.60837 (experimental point)): 8.118 µM | Dose Sor (Fa 0.65): 9.934 µM | Dose Sor (Fa 0.7): 12.8580 µM | Dose Sor (Fa 0.75): 17.0827 µM | Dose Sor (Fa 0.8): 23.6479 µM | Dose Sor (Fa 0.84428 (experimental point)): 33.3507 µM | Dose Sor (Fa 0.85): 35.0585 µM | Dose Sor (Fa 0.9): 59.1449 µM | Dose Sor (Fa 0.93635 (experimental point)): 103.075 µM | Dose Sor (Fa 0.95): 137.645 µM | Dose Sor (Fa 0.97): 251.060 µM | Dose Sor (Fa 1.0E−4 (experimental point)): 0.000148 µM | IC50 (CalcuSyn median-effect fit, single drug dosed in uM): 4.93 µM
